We go through six molecules from paper PMC5832771, “Recognition motif and mechanism of ripening inhibitory peptides in plant hormone receptor ETR1” (Scientific Reports, 2018).

T1: AtETR1^1–307 (TM–GAF) (Arabidopsis thaliana, UniProt P49333 1-307, Alexa Fluor 488 C5 maleimide (thiol-reactive) label)
T1 construct: pTEV-16b: N-terminal His10, linker SSGH, TEV site ENLYFQG; no cleavage described; source: E. coli C43 (DE3), purified (membranes solubilised in fos-choline-16, Ni-NTA HisTrap)
T1 sequence (looked up): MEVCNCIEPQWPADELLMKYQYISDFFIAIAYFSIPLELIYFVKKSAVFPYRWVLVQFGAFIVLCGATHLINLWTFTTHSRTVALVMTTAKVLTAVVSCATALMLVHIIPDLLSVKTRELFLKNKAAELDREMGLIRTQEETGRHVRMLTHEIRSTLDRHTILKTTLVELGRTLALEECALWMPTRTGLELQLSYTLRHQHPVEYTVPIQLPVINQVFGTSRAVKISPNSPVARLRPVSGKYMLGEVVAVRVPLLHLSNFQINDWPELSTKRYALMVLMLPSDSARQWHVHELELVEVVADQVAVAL

B1: extended peptide NIP-1 (peptide)
peptide: AFPKGKENLASVLKRYKRRL-NH2
notes: source: synthetic peptide, bought: GenScript (TFA salt, >98% HPLC purity)
B2: extended peptide N30P (peptide)
peptide: GRTGTAAGDVAFPKGKENLASVLKRYKRRL-NH2
notes: as for B1
B3: extended peptide N41P (peptide)
peptide: KDVEMAISSRKGRTGTAAGDVAFPKGKENLASVLKRYKRRL-NH2
notes: as for B1

Residues, ends and D or L forms follow the SMILES beside them. No end group written: not given here.

One experiment addresses T2, AtETR1^1–307 (TM–GAF) (Arabidopsis thaliana, UniProt P49333).
T2 construct: made in house; host or cells: E. coli C43 (DE3)
Put plainly: biochemical. The class given is binding.
Details: not given
As for `CC(C)C[C@H](NC(=O)[C@H](CCCNC(=N)N)NC(=O)[C@H](CCCNC(=N)N)NC(=O)[C@H](CCCCN)NC(=O)[C@H](Cc1ccc(O)cc1)NC(=O)[C@H](CCCNC(=N)N)NC(=O)[C@H](CCCCN)NC(=O)[C@H](CC(C)C)NC(=O)[C@@H](NC(=O)[C@H](CO)NC(=O)[C@H](C)NC(=O)[C@H](CC(C)C)NC(=O)[C@H](CC(N)=O)NC(=O)[C@H](CCC(=O)O)NC(=O)[C@H](CCCCN)NC(=O)CNC(=O)[C@H](CCCCN)NC(=O)[C@@H]1CCCN1C(=O)[C@H](Cc1ccccc1)NC(=O)[C@H](C)NC(=O)[C@@H](NC(=O)[C@H](CC(=O)O)NC(=O)CNC(=O)[C@H](C)NC(=O)[C@H](C)NC(=O)[C@@H](NC(=O)CNC(=O)[C@@H](NC(=O)[C@H](CCCNC(=N)N)NC(=O)CN)[C@@H](C)O)[C@@H](C)O)C(C)C)C(C)C)C(N)=O` [N30P] (H-GRTGTAAGDVAFPKGKENLASVLKRYKRRL-NH2), the affinity, expressed as Kd, was 57 ± 19 nM.
For `CC(C)C[C@H](NC(=O)[C@H](CCCNC(=N)N)NC(=O)[C@H](CCCNC(=N)N)NC(=O)[C@H](CCCCN)NC(=O)[C@H](Cc1ccc(O)cc1)NC(=O)[C@H](CCCNC(=N)N)NC(=O)[C@H](CCCCN)NC(=O)[C@H](CC(C)C)NC(=O)[C@@H](NC(=O)[C@H](CO)NC(=O)[C@H](C)NC(=O)[C@H](CC(C)C)NC(=O)[C@H](CC(N)=O)NC(=O)[C@H](CCC(=O)O)NC(=O)[C@H](CCCCN)NC(=O)CNC(=O)[C@H](CCCCN)NC(=O)[C@@H]1CCCN1C(=O)[C@H](Cc1ccccc1)NC(=O)[C@H](C)N)C(C)C)C(N)=O` [NIP-1] (H-AFPKGKENLASVLKRYKRRL-NH2), binding was characterised by a dissociation constant (Kd) of 68 ± 15 nM.
Turning to “KDVEMAISSRKGRTGTAAGDVAFPKGKENLASVLKRYKRRL-NH2 [N41P]”, binding was put at a Kd of 30 ± 10 nM. Compared with the last molecule, the Kd is about 2.3-fold lower.

The target of a further experiment is T1, AtETR1^1–307 (TM–GAF). Put plainly: MST; Alexa Fluor 488-labelled AtETR1 construct at 25 nM, peptide titrated; 50 mM Tris/HCl pH 8.0, 300 mM NaCl, 0.15 g/L fos-choline-16; 23-25 °C; temperature jump evaluated, one-binding-site model. Conditions: both partners purified.
Turning to B1, the binding result is reported as “binds”.
The same measure, in the same setting: for B2 the value was “binds”; for B3, “binds”.
